# Test results: publication PMC3279408, “A Non-Mammalian Type Opsin 5 Functions Dually in the Photoreceptive and Non-Photoreceptive Organs of Birds” (PLoS ONE, 2012)
# Target: T1, cOpn5L2 (Gallus gallus, UniProt B3XZF6)
# T1 construct: N-terminal peptide MEEQYISKLHPVVDY, C-terminal peptide IRLSPTAKVESQGAARH (antigens)
# T1 sequence (B3XZF6 1-348): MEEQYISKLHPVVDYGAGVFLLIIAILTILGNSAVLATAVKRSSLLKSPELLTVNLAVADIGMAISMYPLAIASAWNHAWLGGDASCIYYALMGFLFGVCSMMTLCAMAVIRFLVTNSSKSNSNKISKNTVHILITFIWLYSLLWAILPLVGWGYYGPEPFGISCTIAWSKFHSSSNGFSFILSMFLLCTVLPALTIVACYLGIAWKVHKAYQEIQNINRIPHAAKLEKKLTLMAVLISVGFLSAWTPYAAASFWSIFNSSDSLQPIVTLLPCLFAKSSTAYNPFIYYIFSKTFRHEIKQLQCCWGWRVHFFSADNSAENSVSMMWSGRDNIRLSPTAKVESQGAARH
# Experiment: absorption spectra of purified pigment, HPLC of retinal oximes, GTPgammaS binding Gi activation assay
# Details: 5 uM retinal added to cell medium, pH 6.5, spectra at 0 C
SMILES,"absorption spectra of purified pigment, HPLC of retinal oximes, GTPgammaS bindin (chromophore of UV-absorbing form, UV light converts it to the active all-trans form)","absorption spectra of purified pigment, HPLC of retinal oximes, GTPgammaS bindin (agonist, Gi assay in dark at pH 7.0, 0 C, retinylidene chromophore)"
CC1=C(/C=C/C(C)=C/C=C\C(C)=C\C=O)C(C)(C)CCC1 [11-cis-retinal],absorption spectrum and the light-dependent changes of cOpn5L2 reconstituted with 11-cis-retinal,
CC1=C(/C=C/C(C)=C/C=C/C(C)=C/C=O)C(C)(C)CCC1 [all-trans-retinal],,"all-trans-retinal most likely incorporates directly into cOpn5L2, which results in induction of basal constitutive activity"
